The numbers were not newly measured in patent publication US11878005B2, “Formulations of deferasirox and methods of making the same” (AustinPx, LLC, priority 2015, dated 2024), which cites them from elsewhere.

Assay in data set [1]: not given
This is another data set of the same source.

With `O=C(O)c1ccc(-n2nc(-c3ccccc3O)nc2-c2ccccc2O)cc1` [DFX, Deferasirox], the reported water solubility (25° C.) is 400 µg/mL. Also, the pH dependent solubility result (acidic media) was “insoluble in acidic media”. For the same molecule, in data set [1] (iron overload patients, administered with a high fat meal), the “food effect on exposure” value is reported as “two-fold higher exposure”. Moreover, the “total DFX dose recovered in the feces as unchanged drug” value in data set [1] (steady state (7-day dosing)) is given as 84%.
